Measured values: patent US5962294A, “Compositions and methods for the identification and synthesis of sialyltransferases” (The Regents of the University of California, priority 1993, dated 1999)
Positions count from the first letter of the chain named. Entries after “also recorded” stand apart in the source; their conditions may differ.

B1: Form A: 48 kDa molecular weight form of the porcine liver α2,3 sialyltransferase (protein)
chain: TLKLLTLLVLFIFLTSFFLNYSHTVVTTAWFPKQMVIELSENFKKLMKYPYRPCTCTRCIEEQRVSAWFDERFNRSMQPLLTAKNAHLEEDTYKWWLRLQREKQPNNLNDTIRELFQVVPGNVDPLLEKRLVSCRRCAVVGNSGNLKESYYGPQIDSHDFVLRMNKAPTEGFEADVGSKTTHHFVYPESFRELAQEVSMILVPFKTTDLEWVISATTTGTISHTYVPVPAKIKVKKEKILIYHPAFIKYVFDRWLQGHGRYPSTGILSVIFSLHICDEVDLYGFGADSKGNWHHYWENNPSAGAFRKTGVHDGDFESNVTTILASINKIRIFKGR
B2: porcine Galβ1,3GalNAc α2,3 sialyltransferase (protein)
chain: NYSHTVVTTAWFPKQMVIELSENFKKLMKYPYRPCTCTRCIEEQRVSAWFDERFNRSMQPLLTAKNAHLEEDTYKWWLRLQREKQPNNLNDTIRELFQVVPGNVDPLLEKRLVSCRRCAVVGNSGNLKESYYGPQIDSHDFVLRMNKAPTEGFEADVGSKTTHHFVYPESFRELAQEVSMILVPFKTTDLEWVISATTTGTISHTYVPVPAKIKVKKEKILIYHPAFIKYVFDRWLQGHGRYPSTGILSVIFSLHICDEVDLYGFGADSKGNWHHYWENNPSAGAFRKTGVHDGDFESNVTTILASINKIRIFKGR

Assays:
ST3O = molecular target: T1, ST3O (Sus scrofa, UniProt Q02745); experiment: Acceptor specificity of ST3O (Table 4); settings: for Relative rate (%) ST30: acceptor 0.2 mM
T1 sequence (Q02745 28-343 limits assumed): B2 chain with T201R

ST3N = molecular target: T2, ST3N (Rattus norvegicus, UniProt Q02734); experiment: Acceptor specificity of ST3N (Table 4)
T2 sequence (Q02734 29-374 limits assumed): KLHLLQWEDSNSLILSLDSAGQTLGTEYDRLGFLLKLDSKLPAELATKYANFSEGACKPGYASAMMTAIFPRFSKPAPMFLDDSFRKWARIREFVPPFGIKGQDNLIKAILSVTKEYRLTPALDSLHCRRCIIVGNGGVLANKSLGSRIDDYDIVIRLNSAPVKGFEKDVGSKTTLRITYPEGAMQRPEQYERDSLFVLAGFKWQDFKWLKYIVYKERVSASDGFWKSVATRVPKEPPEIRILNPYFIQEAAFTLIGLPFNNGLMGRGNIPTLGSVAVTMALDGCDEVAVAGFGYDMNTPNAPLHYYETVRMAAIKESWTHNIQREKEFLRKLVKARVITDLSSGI

rat ST3N = molecular target: T3, rat ST3N (Rattus norvegicus, UniProt Q02734); experiment: Acceptor specificity of soluble rat ST3N fusion protein (Table 3); settings: acceptor 0.2 mM; relative to LNT
T3 sequence (Q02734 29-374 limits assumed): T2 sequence (Q02734 29-374 limits assumed)

ST3 = molecular target: T4, ST3 (Homo sapiens, UniProt Q11206); experiment: Acceptor specificity of soluble ST3 (AZ3, concentrated COS-1 media); type: biochemical; settings: for Relative rate (%) ST3: acceptor 0.2 mM
T4 construct: A truncated form of ST3, lacking the first 39 amino acids of the long-form open reading frame; made in house; host or cells: COS-1 (concentrated culture medium)
T4 sequence (Q11206 41-333): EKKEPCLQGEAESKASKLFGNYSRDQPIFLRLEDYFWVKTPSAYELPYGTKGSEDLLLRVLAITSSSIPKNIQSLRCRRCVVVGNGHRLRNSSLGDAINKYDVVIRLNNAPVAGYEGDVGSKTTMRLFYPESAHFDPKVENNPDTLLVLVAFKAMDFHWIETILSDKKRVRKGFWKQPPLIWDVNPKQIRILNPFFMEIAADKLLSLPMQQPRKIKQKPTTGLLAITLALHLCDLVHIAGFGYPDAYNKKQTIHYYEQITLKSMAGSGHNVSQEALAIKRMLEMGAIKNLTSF

human ST3N = molecular target: T5, human ST3N (Homo sapiens, UniProt Q11203); experiment: Acceptor specificity of soluble human ST3N (protein A fusion from COS-1 cells, on IgG Sepharose); settings: acceptor 0.2 mM; relative to LNT
T5 sequence (Q11203 62-375): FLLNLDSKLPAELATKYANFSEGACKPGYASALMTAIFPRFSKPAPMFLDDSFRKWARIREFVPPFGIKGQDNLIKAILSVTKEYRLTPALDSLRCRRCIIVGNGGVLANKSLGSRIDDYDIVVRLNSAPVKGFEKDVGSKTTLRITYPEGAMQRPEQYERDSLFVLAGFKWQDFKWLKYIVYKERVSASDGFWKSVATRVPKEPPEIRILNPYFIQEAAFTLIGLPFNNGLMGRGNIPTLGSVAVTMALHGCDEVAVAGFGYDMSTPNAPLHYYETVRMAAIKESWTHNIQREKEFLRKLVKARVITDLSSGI

[1] = system: acceptor substrate antifreeze glycoprotein (AFGP); experiment: Sialyltransferase activity of purified porcine liver α2,3-0 sialyltransferase; type: biochemical; settings: after third CDP-hexanolamine agarose column
Description: FIG. 4 Purification of the α2,3-0 sialyltransferase on CDP-hexanolamine agarose (column III, CDP elution). […] In columns A and B elution of enzyme activity correlated predominantly with 48 kDa and a 45 kDa protein species, respectively (see inset, SDS-PAGE). These two species, form A and form B of the α2,3 sialyltransferase, had specific activities of 8-10 units/mg protein. The 48 kDA and 45 kDA species were blotted to a PVDF membrane and analyzed by NH2 -terminal sequencing.
The enzyme was purified from a porcine liver Triton X-100 extract by affinity chromatography on three successive columns of CDP-hexanolamineagarose. The elution profile from the first and third purification steps are shown in FIG. 3 and FIG. 4, respectively. […] These two peaks were separated by combining the indicated fractions into pools A and B, these two pools were subsequently found to be enriched in two different molecular weight forms of the α2,3-0 sialyltransferase.
The membranes were extracted three times with buffer (Conradt, H. S. et al., in Sialic Acids 1988 Proceedings of the Japanese-German Symposium on Sialic Acids (Schauer and Yamakawa, eds.) pp. 104-105, Verlag Wissenschaft and Bildung, Kiel [1988]) and the extract was passed over a 1.5 l CDP-hexanolamine agarose column (column 1) (16 umol/ml). After washing the column with 3 L buffer B, the column was eluted with a linear gradient of 0.05 to 1.0 M KCL (2.5 l×2.5 l) in buffer B. Fractions containing α2,3 sialyltransferase were combined into two pools A and B, representing the main part and the trailing end of the peak, respectively (see FIG. 3). The pools were dialysed against buffer B and subjected to another round of affinity chromatography on CDP-hexanolamine agarose (columns IIA and IIB). A 150 ml column was used for pool A and a 30 ml column was used for pool B; two preparations from column I (from total of 4 kg liver) were loaded on the same column in step II. […]

Molecule | Relative rate (%) ST30 (ST3O) [%] | Relative rate (%) ST3N (ST3N; acceptor 0.2 mM) [%] | Relative rate (%) ST3N (ST3N; acceptor 2.0 mM) [%] | acceptor substrate for ST3 enzyme (in words) (ST3) | other results
GalNAcβ1,4Galβ1,4Glcβ1-Cer [GalNAcβ1,4Galβ1,4Glcβ1-Cer (Asialo-GM2)] | 0.5 | 0 | – | – | –
CC(=O)N[C@H]1[C@H](O[C@H]2[C@@H](O)[C@@H](CO)O[C@@H](O[C@H]3[C@H](O)[C@@H](O)C(O)O[C@@H]3CO)[C@@H]2O)O[C@H](CO)[C@@H](O[C@@H]2O[C@@H](C)[C@@H](O)[C@@H](O)[C@@H]2O)[C@@H]1O[C@@H]1O[C@H](CO)[C@H](O)[C@H](O)[C@H]1O (stereo partly shown) [Galβ1,3(Fucα1,4)GlcNAcβ1,3Galβ1,4Glc] | 0 | 0 | 0 | – | –
NeuAcα2,3Galβ1,4Glcβ1-Cer [NeuAcα2,3Galβ1,4Glcβ1-Cer (GM3)] | 0.1 | 0 | – | – | –
CC(=O)N[C@H]1[C@H](O[C@H]2[C@@H](O)[C@@H](CO)O[C@@H](O[C@H]3[C@H](O)[C@@H](O)C(O)O[C@@H]3CO)[C@@H]2O)O[C@H](CO)[C@@H](O)[C@@H]1O[C@@H]1O[C@H](CO)[C@H](O)[C@H](O)[C@H]1O (stereo partly shown) [Galβ1,3GlcNAcβ1,3Galβ1,4Glc (LNT), Galβ1,3GlcNAcβ1,3Galβ1,4Glc] | 0.5 | 100 | 100 | – | Relative activity (%) Rat (rat ST3N): 100%
CC(=O)N[C@H]1C(O)O[C@H](CO)[C@H](O)[C@@H]1O[C@@H]1O[C@H](CO)[C@H](O)[C@H](O)[C@H]1O (stereo partly shown) [Galβ1,3GalNAc] | 100 | 3 | 10 | – | –
Galβ1,3GalNAcβ1,4(NeuAcα2-3)Galβ1,4Glcβ1-Cer | 47 | 0 | – | also serving as substrates, but to a lesser extent | acceptor substrate for ST30 enzyme (in words) (ST3O): well
Asialofetuin: glycoprotein acceptor (Galβ1,3GalNAc-Thr/Ser and Galβ1,4GlcNAc-R) | 26 | 18 | – | sialic acid was incorporated; also recorded: best acceptor | –
GalNAcβ1,4(NeuAcα2-3)Galβ1,4Glcβ1-Cer | 0.3 | 0 | – | – | Relative rate (%) ST3 (ST3): 1%
α1 -acid glycoprotein: intact glycoprotein examined as acceptor | – | – | – | not any significant amount of sialic acid incorporated | –
Galβ1,4Glcβ1-Cer [Galβ1,4Glcβ1-Cer (LacCer)] | 0.1 | 0 | – | low but significant level incorporation | –
CC(=O)N[C@H]1[C@H](O[C@H]2[C@@H](O)[C@@H](CO)O[C@@H](O[C@H]3[C@H](O)[C@@H](O)C(O)O[C@@H]3CO)[C@@H]2O)O[C@H](CO)[C@@H](O[C@@H]2O[C@H](CO)[C@H](O)[C@H](O)[C@H]2O)[C@@H]1O[C@@H]1O[C@@H](C)[C@@H](O)[C@@H](O)[C@@H]1O (stereo partly shown) [Galβ1,4(Fucα1,3)GlcNAcβ1,3Galβ1,4Glc] | 0 | 0 | 0 | – | –
CC(=O)N[C@H]1C(O)O[C@H](CO)[C@@H](O[C@@H]2O[C@H](CO)[C@H](O)[C@H](O)[C@H]2O)[C@@H]1O (stereo partly shown) [Galβ1,4GlcNAc] | 0 | 19 | 46 | – | Relative activity (%) Rat (rat ST3N): 19%; Relative activity (%) Human (human ST3N): 22%
CC(=O)N[C@H]1[C@H](O[C@H]2[C@@H](O)[C@@H](CO)O[C@@H](O[C@H]3[C@H](O)[C@@H](O)C(O)O[C@@H]3CO)[C@@H]2O)O[C@H](CO)[C@@H](O[C@@H]2O[C@H](CO)[C@H](O)[C@H](O)[C@H]2O)[C@@H]1O (stereo partly shown) [Galβ1,4GlcNAcβ1,3Galβ1,4Glc (LNnT), Galβ1,4GlcNAcβ1,3Galβ1,4Glc] | 0 | 4 | 18 | – | Relative activity (%) Rat (rat ST3N): 4%
Galβ1,3GalNAcβ1,4Galβ1,4Glcβ1-Cer | 88 | 8 | – | preferred one | acceptor substrate for ST30 enzyme (in words) (ST3O): well; Relative rate (%) ST3 (ST3): 64%
intact fetuin: glycoprotein examined as acceptor | – | – | – | not any significant amount of sialic acid incorporated | –
Galβ1,4GlcNAcβ1,3Galβ1,4Glcβ1-Cer [Galβ1,4GlcNAcβ1,3Galβ1,4Glcβ1-Cer (nLc4)] | – | – | – | also serving as substrates, but to a lesser extent | –
B1 | – | – | – | – | specific activity [1]: 8-10 units/mg protein
B2 | – | – | – | – | specific activity [1]: 8-10 units/mg protein
